Data from patent US9636374B2, “pH-sensitive polymer-drug conjugates for targeted delivery of therapeutics” (priority 2011, dated 2017).
Entries after “also recorded” stand apart in the source; their conditions may differ.

Experiments:
[1] = H1-NMR analysis of pH-dependent dissociation of bortezomib-catechol conjugates; format: physicochemical; conditions: as the pH decreased from 7.4 to 5.5; 1 mM in deuterated phosphate buffer
Procedure: First, the pH-dependent reversible binding between BTZ and catechol-containing polymers was characterized using H^1-NMR spectroscopy (FIG. 3A). At pH 5.5, mixing BTZ and catechol-containing dopamine (DA) gave a spectrum similar to that of the two individual compounds superimposed on each other, indicating the presence of un-complexed BTZ and DA.
H^1-NMR analysis of pH-dependent dissociation of bortezomib-catechol conjugates. Bortezomib and dopamine hydrogen chloride were dissolved separately in d6-DMSO 0.2 M concentration. The two solutions were mixed to give a stock solution of DA-BTZ conjugate at 0.1 M in DMSO. A solution of 0.1 M monosodium phosphate in D2O was used to dilute the DA-BTZ stock to 1 mM, and pH of such solutions were adjusted with 4N NaOH in D2O to 5.5, 6.5, 7.4 and 8.5. These solutions were analyzed on AVANCE III 500 MHz (FIG. 6) and peak integrals in the range of 7.2 to 5.5 ppm were used for quantifying the degree of dissociation of DA-BTZ presented in FIG. 3B.

[2] = system: MDA-MB-231, MCF-10A-H-RasV12 and MCF-10A-Vector cells; test: Biotin-mediated cell uptake of PEG-FITC (fluorescence microscopy); format: cell-based, human; conditions: 15 minute-treatment; for cellular uptake: 1 μM, cancer and noncancerous cells
[3] = 3-component inhibition fluorescence assay (ARS-bortezomib competition); format: physicochemical; conditions: from pH 7.4 to pH 5.5
Procedure: 3-component inhibition fluorescence assay. The fluorescence assay for characterizing pH-sensitive binding between bortezomib and catechol was carried out using procedures modified from the aforementioned literature method. Briefly, a solution of 0.1 mM ARS was prepared in 0.1 M phosphate monosodium buffer (solution A). Bortezomib was dissolved in solution A to achieve final concentration of 1 mM (solution B). The pH of both solution A and solution B was adjusted to 5.5, 6.5 and 7.4 using a 4N NaOH aqueous solution. Solution B was titrated to solution A to make a series of solutions that contain constant concentration of ARS (0.1 mM) and varying concentration of bortezomib (0˜1 mM) at defined pH. After mixing the two solutions, the final solution stood for 5 minutes before fluorescence measurement at excitation 495 nm, emission 565 nm on SpectraMax M5 (Molecular Devices, Sunnyvale, Calif.). This procedure was used to probe the pH-dependence of ARS-BTZ binding (FIG. 6). The binding capacity of catechol for bortezomib was characterized based on the inhibition of catechol on ARS-bortezomib binding, resulting in a decrease in fluorescence intensity. […] Fluorescence intensity of each solution was measured to plot the binding inhibition curves in FIG. 7. […] Fmax refers to the fluorescence intensity of ARS-BTZ conjugate in solution C at a defined pH. […]

Compound: CC(C)CC(NC(=O)C(Cc1ccccc1)NC(=O)c1cnccn1)B1Oc2ccc(CCN)cc2O1 (centres unmarked) [BTZ-catechol conjugate]
- increase in dissociation of the BTZ-catechol conjugate [1]: 50%

Compound: O=C(O)CCCC[C@@H]1SC[C@@H]2NC(=O)N[C@@H]21 [biotin, reference compound]
- inhibition of cellular uptake of biotin-PEG-FITC ([2]; free biotin in buffer): Dose-dependent inhibition

Compound: PEG-FITC
- cellular uptake [2]: little; also recorded: minimal

Compound: PEG-catechol
- decrease in binding affinity for BTZ [3]: about 60%

Compound: biotin-PEG-FITC
- cellular uptake [2]: showed uptake; also recorded: rapidly taken up
